US20140066365A1, “USE OF CALIXARENES ASSOCIATED WITH AN ANTIBIOTIC IN THE TREATMENT OF BACTERIAL INFECTIONS” (priority 2011, published 2014)
Like-named read-outs stand apart in the source and are kept apart here.

What was measured:
Assay type in all cases: cell-based
[1] = test system: ESBL-producing strain of Escherichia coli, having an associated resistance to the aminoglycosides (EcR3); assay: MIC of the compounds used alone, microdilution in a liquid medium (CLSI); conditions: Escherichia coli, antibiotic alone (second value of cell), read-out: Initial MICs
Description: (§1) The MICs of the antibiotics were previously defined for each strain, by the method of microdilution in a liquid medium (CLSI (Clinical and Laboratory Standards Institute), 2003).

[2] = test system: Escherichia coli strain ATCC 25922 (wild type); assay: as above; conditions: Escherichia coli, ATCC25922; antibiotic alone (second value of cell); E. coli ATCC 25922; read-out: Initial MICs
Description: as §1

[3] = test system: Pseudomonas aeruginosa strain ATCC 27853 (wild type); assay: as above; conditions: Pseudomonas aeruginosa, ATCC27853; antibiotic alone (second value of cell); P. aeruginosa ATCC 27853; read-out: MIC
Description: as §1

[4] = test system: Pseudomonas aeruginosa strain PaR3; assay: as above; conditions: Pseudomonas aeruginosa, antibiotic alone (second value of cell), read-out: MIC
Description: as §1

[5] = test system: cephalosporinase-hyperproducing strain of Escherichia coli (EcR2); assay: as above; conditions: Escherichia coli, antibiotic alone (second value of cell), read-out: Initial MICs
Description: as §1

[6] = test system: mucoid strain of Pseudomonas aeruginosa PaR5; assay: as above; conditions: Pseudomonas aeruginosa, antibiotic alone (second value of cell), read-out: MIC
Description: as §1

[7] = test system: penicillinase-producing strain of Escherichia coli without associated resistance (EcR1); assay: as above; conditions: Escherichia coli, antibiotic alone (second value of cell), read-out: Initial MICs
Description: as §1

[8] = test system: Pseudomonas aeruginosa strain PaR2; assay: microbe, parasite or virus in culture; conditions: Pseudomonas aeruginosa, antibiotic alone (second value of cell), read-out: MIC
Description: as §1

[9] = test system: EcR1: Penicillinase-Producing Escherichia coli without Associated Resistance; assay: Antibiogram, MIC by the VITEK 2 system; conditions: for MIC: Escherichia coli
Protocol: (§2) 5.1 EcR1: Penicillinase-Producing Escherichia coli without Associated Resistance The bacterial and antibiogramidentification is carried out by the VITEK 2 system (bioMérieux) and by the disk diffusion technique.

[10] = test system: EcR1: Penicillinase-Producing Escherichia coli without Associated Resistance; assay: Antibiogram by the disk diffusion technique; conditions: Table A1
Protocol: as §2

[11] = test system: EcR2: Cephalosporinase-Hyperproducing Strain of Escherichia coli; assay: Antibiogram by the disk diffusion technique
Protocol: The bacterial and antibiogramidentification is carried out by the VITEK 1 system (bioMérieux) and by the disk diffusion technique

[12] = test system: EcR3: ESBL-Producing Escherichia coli; assay: Antibiogram by the disk diffusion technique
Protocol: The bacterial and antibiogramidentification is carried out by the VITEK 2 system (bioMerieux) and by the disk diffusion technique

[13] = test system: PaR3: Pseudomonas aeruginosa; assay: Antibiogram, MIC by the VITEK 2 system
Protocol: (§3) The bacterial and antibiogramidentification is carried out by the VITEK 2 system (bioMérieux)

[14] = test system: SaR1: Meticillin-Resistant Staphylococcus aureus without Associated Resistance; assay: Antibiogram, MIC by the VITEK 2 system; conditions: SaR1
Protocol: as §3

[15] = test system: PaR5: Pseudomonas aeruginosa; assay: Antibiogram by the disk diffusion technique
Protocol: (§4) The bacterial and antibiogramidentification is carried out by the VITEK 2 system (bioMérieux) and by the disk diffusion technique

[16] = test system: SaR3: Meticillin-Resistant Staphylococcus aureus; assay: Antibiogram by the disk diffusion technique
Protocol: as §4

[17] = test system: SaR4: Meticillin-Resistant Staphylococcus aureus; assay: Antibiogram by the disk diffusion technique
Protocol: as §4

[18] = test system: PaR2: Pseudomonas aeruginosa
Protocol: as §4

[19] = test system: Escherichia coli, Staphylococcus aureus and Pseudomonas aeruginosa strains; assay: Chessboard technique, summary statements over all strains and combinations tested; conditions: strain not stated
Description: 1.3. Procedure: Chessboard Technique
The same procedure is followed for the Cx1. […] Thus 64 ATB/Cx1 combinations are obtained.
The FIC (Fractional Inhibitory Concentration Index) value is defined by the following formula: […]
When FIC≦0.5, there is a synergistic effect between antibiotic A and antibiotic B.
When 0.5<FIC≦1, there is an additive effect between antibiotic A and antibiotic B.
When 1<FIC≦4, there is an indifferent effect between antibiotic A and antibiotic B.
When FIC>4, there is an antagonistic effect between antibiotic A and antibiotic B.
For each strain and each antibiotic/Cx1 combination, the experiments were repeated a minimum of 3 times.

[20] = test system: SaR1: Meticillin-Resistant Staphylococcus aureus without Associated Resistance; assay: Antibiogram, inhibition diameter (Table D1)
Protocol: as §3

NC[C@H]1O[C@H](O[C@H]2[C@H](O)[C@@H](O[C@H]3O[C@H](CO)[C@@H](O)[C@H](N)[C@H]3O)[C@H](N)C[C@@H]2N)[C@H](N)C[C@@H]1O [Tobramycin]
≦1 mg/L: MIC mg/L ([14]; Table D2)
10 mm: Diameter ([11]; EcR2, Table B2, diameters)
≤ 1 µg/mL: MIC ([14]; Staphylococcus aureus, Table D1, read-out: MIC)
≧16: MIC ([13]; Table H1)
0.25 µg/mL: MIC [2] | MIC [7]
6 mm: Diameter ([12]; Table C1) | diameter in mm ([12]; Table C2) | Diameter ([16]; Table E1) | diameter in mm ([16]; Table E2) | Diameter ([17]; Table F2, diameters)
0.5 µg/mL: MIC [3]
22 mm: Diameter [20]
Susceptible: CA-SFM Interpretation ([9]; EcR1, MIC against Cc CA-SFM 2011) | CLSI Interpretation ([9]; EcR1, MIC against Cc CLSI 2011) | EUCAST Interpretation ([9]; EcR1, MIC against Cc EUCAST 2011) | Results ([9]; EcR1, interpretation of the MIC, Table A1) | Results ([10]; EcR1, interpretation of the diameter against Dmin Dmax) | CA-SFM Interpretation ([14]; Cc CA-SFM 2011) | CLSI Interpretation ([14]; Cc CLSI 2011) | EUCAST Interpretation ([14]; Cc EUCAST 2011) | Results ([14]; Table D1, from MIC) | Results ([15]; PaR5, Table I1, against Dmin-Dmax) | CA-SFM Interpretation ([15]; disk diffusion, PaR5, versus critical diameter CA-SFM 2011) | CLSI Interpretation ([15]; disk diffusion, PaR5, versus critical diameter CLSI 2011) | EUCAST Interpretation ([15]; disk diffusion, PaR5, versus critical diameter EUCAST 2011, for ** antibiotics the disk load differs and the EUCAST interpretation is not applicable) | CA-SFM Interpretation ([18]; Cd CA-SFM 2011) | CLSI Interpretation ([18]; Cd CLSI 2011) | EUCAST Interpretation ([18]; Cd EUCAST 2011) | Results ([18]; Table G1, against Dmin-Dmax) | Results ([20]; from diameter, against Dmin Dmax)
10: Diameter ([11]; EcR2, disk diffusion, Table B1)
24 mm: Diameter ([18]; Table G1) | diameter in mm ([18]; Table G2)
1 µg/mL: MIC [6] | MIC [8]
28 mm: Diameter ([15]; PaR5, Table I1) | diameter in mm ([15]; disk diffusion inhibition diameter, strain PaR5)
synergism: interaction between the antibiotic and Cx1 [19]
≥ 16 µg/mL: MIC ([13]; Pseudomonas aeruginosa, Table H2, read-out: MIC)
≤ 1 mg/L: MIC ([9]; EcR1, Table A2, read-out: MIC mg/L (diameter in mm)) | MIC ([9]; EcR1, VITEK 2, Table A1, read-out: MIC)
19 mm: Diameter ([10]; EcR1, disk diffusion)
4 µg/mL: MIC [1] | MIC [5]
Resistant: Results ([11]; EcR2, rows that print a diameter, Table B1) | CA-SFM Interpretation ([11]; EcR2, from diameter, CA-SFM 2011) | CLSI Interpretation ([11]; EcR2, from diameter, CLSI 2011) | EUCAST Interpretation ([11]; EcR2, from diameter, EUCAST 2011) | CA-SFM Interpretation ([12]; Cd CA-SFM 2011) | CLSI Interpretation ([12]; Cd CLSI 2011) | EUCAST Interpretation ([12]; Cd EUCAST 2011) | Results ([12]; Table C1, against Dmin Dmax) | CA-SFM Interpretation ([13]; Cc CA-SFM 2011) | CLSI Interpretation ([13]; Cc CLSI 2011) | EUCAST Interpretation ([13]; Cc EUCAST 2011) | Results ([13]; Table H1) | CA-SFM Interpretation ([16]; Cd CA-SFM 2011) | CLSI Interpretation ([16]; Cd CLSI 2011) | EUCAST Interpretation ([16]; Cd EUCAST 2011) | Results ([16]; Table E1, against Dmin Dmax) | Results ([17]; Table F1, rows with a diameter) | CA-SFM Interpretation ([17]; from diameter, CA-SFM 2011) | CLSI Interpretation ([17]; from diameter, CLSI 2011) | EUCAST Interpretation ([17]; from diameter, EUCAST 2011)
6: Diameter ([17]; Table F1)
64 µg/mL: MIC [4]
